For the assay, the system named is MV-4-11 cells. Description: Gene expression microarray analysis (Affymetrix PrimeView) and GSEA. The note with it: MV-4-11 cells, 48 hours. More on the design: RFU PODN (11730768_x_at) / Fold change /veh PODN (11730768_x_at) / RFU LINC00158 (11744669_a_at) / Fold change /veh LINC00158 (11744669_a_at) / RFU DUSP10 (11751237_a_at) / Fold change /veh DUSP10 (11751237_a_at) / RFU ID3 (11757404_x_at) / Fold change /veh ID3 (11757404_x_at) / RFU PLEKHG5 (11737974_s_at) / Fold change /veh PLEKHG5 (11737974_s_at) / RFU LRRC4B (11730491_at) / Fold change /veh LRRC4B (11730491_at) / RFU GIMAP4 (11747438_a_at) / Fold change /veh GIMAP4 (11747438_a_at) / RFU KRT8 (11758183_x_at) / Fold change /veh KRT8 (11758183_x_at) / RFU CNN1 (11734310_a_at) / Fold change /veh CNN1 (11734310_a_at) / RFU VPS37D (11726825_at) / Fold change /veh VPS37D (11726825_at) / RFU C10orf10 (11716522_x_at) / Fold change /veh C10orf10 (11716522_x_at) / RFU KIR2DL2 /// KIR2DL4 /// KIR2DL5A /// KIR2DL5B /// KIR2DS1 /// KIR2DS2 /// KIR2DS3 /// KIR2DS4 /// KIR3DL3 /// KIR3DL3 /// KIR3DS1 (11738374_at) / Fold change /veh KIR2DL2 /// KIR2DL4 /// KIR2DL5A /// KIR2DL5B /// KIR2DS1 /// KIR2DS2 /// KIR2DS3 /// KIR2DS4 /// KIR3DL3 /// KIR3DL3 /// KIR3DS1 (11738374_at) / RFU C1QL1 (11718748_at) / Fold change /veh C1QL1 (11718748_at) / RFU TMPRSS4 (11747572_a_at) / Fold change /veh TMPRSS4 (11747572_a_at) / RFU HAMP (11756126_x_at) / Fold change /veh HAMP (11756126_x_at) / RFU RNFT2 (11725882_a_at) / Fold change /veh RNFT2 (11725882_a_at) / RFU NR4A2 (11747474_a_at) / Fold change /veh NR4A2 (11747474_a_at) / RFU ABCC12 (11746883_a_at) / Fold change /veh ABCC12 (11746883_a_at) / RFU TMEM136 (11760407_x_at) / Fold change /veh TMEM136 (11760407_x_at) / RFU CLDN22 /// WWC2 (11732394_at) / Fold change /veh CLDN22 /// WWC2 (11732394_at) / RFU HLA-DPB1 (11760878_x_at) / Fold change /veh HLA-DPB1 (11760878_x_at) / RFU SPINT1 (11716480_a_at) / Fold change /veh SPINT1 (11716480_a_at) / RFU GAP43 (11754022_s_at) / Fold change /veh GAP43 (11754022_s_at) / RFU A4GNT (11735810_at) / Fold change /veh A4GNT (11735810_at) / RFU PRB3 (11715151_x_at) / Fold change /veh PRB3 (11715151_x_at) / RFU TUBB4B (11761932_at) / Fold change /veh TUBB4B (11761932_at) / RFU CAPN14 (11732068_a_at) / Fold change /veh CAPN14 (11732068_a_at) / RFU TMCC2 (11721928_a_at) / Fold change /veh TMCC2 (11721928_a_at) / RFU IRGQ (11745062_a_at) / Fold change /veh IRGQ (11745062_a_at) / RFU FAM174B (11720279_a_at) / Fold change /veh FAM174B (11720279_a_at) / RFU TMPRSS4 (11748680_a_at) / Fold change /veh TMPRSS4 (11748680_a_at) / RFU FAM212B (11763350_a_at) / Fold change /veh FAM212B (11763350_a_at) / RFU PLEKHG5 (11743358_a_at) / Fold change /veh PLEKHG5 (11743358_a_at) / RFU ZSCAN30 (11745921_a_at) / Fold change /veh ZSCAN30 (11745921_a_at) / RFU CMKLR1 (11741424_a_at) / Fold change /veh CMKLR1 (11741424_a_at) / RFU LOC101060620 /// MAPK8IP1 (11723275_at) / Fold change /veh LOC101060620 /// MAPK8IP1 (11723275_at) / RFU SPTSSB (11747773_x_at) / Fold change /veh SPTSSB (11747773_x_at) / RFU PRSS12 (11739890_at) / Fold change /veh PRSS12 (11739890_at) / RFU BIN1 (11741810_x_at) / Fold change /veh BIN1 (11741810_x_at) / RFU WNT11 (11732464_a_at) / Fold change /veh WNT11 (11732464_a_at) / RFU C10orf10 (11716521_a_at) / Fold change /veh C10orf10 (11716521_a_at) / RFU C5orf56 (11738089_at) / Fold change /veh C5orf56 (11738089_at) / RFU CYB561 (11721691_x_at) / Fold change /veh CYB561 (11721691_x_at) / RFU ANKRD19P (11752326_a_at) / Fold change /veh ANKRD19P (11752326_a_at) / RFU OR2T12 /// OR2T33 /// OR2T8 (11738714_s_at) / Fold change /veh OR2T12 /// OR2T33 /// OR2T8 (11738714_s_at) / RFU VCAN (11748164_a_at) / Fold change /veh VCAN (11748164_a_at) / RFU JSRP1 (11732532_at) / Fold change /veh JSRP1 (11732532_at) / RFU KRTAP10-11 (11738290_x_at) / Fold change /veh KRTAP10-11 (11738290_x_at) / RFU MYO3A (11730013_a_at) / Fold change /veh MYO3A (11730013_a_at) / RFU EBF3 (11725865_a_at) / Fold change /veh EBF3 (11725865_a_at) / RFU CAMK2N1 (11719241_x_at) / Fold change /veh CAMK2N1 (11719241_x_at) / RFU C5orf56 (11738088_a_at) / Fold change /veh C5orf56 (11738088_a_at) / RFU OLFML3 (11715873_a_at) / Fold change /veh OLFML3 (11715873_a_at) / RFU LOC100653217 /// NTM (11731650_a_at) / Fold change /veh LOC100653217 /// NTM (11731650_a_at) / RFU MAPK11 (11762145_a_at) / Fold change /veh MAPK11 (11762145_a_at) / RFU FIZ1 (11724087_x_at) / Fold change /veh FIZ1 (11724087_x_at) / RFU OASL (11726364_x_at) / Fold change /veh OASL (11726364_x_at) / RFU SOX15 (11748057_x_at) / Fold change /veh SOX15 (11748057_x_at) / RFU CD79A (11719716_a_at) / Fold change /veh CD79A (11719716_a_at) / RFU HIST1H1D (11736915_at) / Fold change /veh HIST1H1D (11736915_at) / RFU CASKIN2 (11723855_a_at) / Fold change /veh CASKIN2 (11723855_a_at) / RFU LOC730098 (11760151_x_at) / Fold change /veh LOC730098 (11760151_x_at) / RFU OR4N2 (11742367_at) / Fold change /veh OR4N2 (11742367_at) / RFU PRRT2 (11749266_a_at) / Fold change /veh PRRT2 (11749266_a_at) / RFU SNX32 (11753110_a_at) / Fold change /veh SNX32 (11753110_a_at) / RFU CDHR5 (11726645_a_at) / Fold change /veh CDHR5 (11726645_a_at) / RFU RCAN1 (11760418_a_at) / Fold change /veh RCAN1 (11760418_a_at) / RFU FAM167A (11723789_a_at) / Fold change /veh FAM167A (11723789_a_at) / RFU FAM26E (11764081_at) / Fold change /veh FAM26E (11764081_at) / RFU ISYNA1 (11749810_s_at) / Fold change /veh ISYNA1 (11749810_s_at) / RFU ACY1 (11761880_at) / Fold change /veh ACY1 (11761880_at) / RFU 11764098_at / Fold change /veh 11764098_at / RFU SAMD14 (11745864_x_at) / Fold change /veh SAMD14 (11745864_x_at) / RFU NPB (11741838_a_at) / Fold change /veh NPB (11741838_a_at) / RFU TMPRSS6 (11731388_a_at) / Fold change /veh TMPRSS6 (11731388_a_at) / RFU KRTAP10-2 (11738614_at) / Fold change /veh KRTAP10-2 (11738614_at) / RFU ARHGAP8 /// PRR5-ARHGAP8 (11727945_x_at) / Fold change /veh ARHGAP8 /// PRR5-ARHGAP8 (11727945_x_at) / RFU KRTAP5-7 /// NADSYN1 (11734609_at) / Fold change /veh KRTAP5-7 /// NADSYN1 (11734609_at) / RFU RASL12 (11751679_a_at) / Fold change /veh RASL12 (11751679_a_at) / RFU CDKN2B (11736163_a_at) / Fold change /veh CDKN2B (11736163_a_at) / RFU PRF1 (11729649_at) / Fold change /veh PRF1 (11729649_at) / RFU, ZNF638 /// ZNF638-IT1 / Fold change vs veh, ZNF638 /// ZNF638-IT1 / RFU, PANK3 / Fold change vs veh, PANK3 / RFU, SH3YL1 / Fold change vs veh, SH3YL1 / RFU, ZEB2 / Fold change vs veh, ZEB2 / RFU, NRIP1 / Fold change vs veh, NRIP1 / RFU, PTTG1IP / Fold change vs veh, PTTG1IP / RFU, CAPN2 / Fold change vs veh, CAPN2 / RFU, MED14 / Fold change vs veh, MED14 / RFU, SNORA58 / Fold change vs veh, SNORA58 / RFU, C1orf63 / Fold change vs veh, C1orf63 / RFU, LRRFIP1 / Fold change vs veh, LRRFIP1 / RFU, NDUFAF7 / Fold change vs veh, NDUFAF7 / RFU, SLC12A2 / Fold change vs veh, SLC12A2 / RFU, IBTK / Fold change vs veh, IBTK / RFU, ESF1 / Fold change vs veh, ESF1 / Fold change vs veh, TMEM50B / RFU, TAOK1 / Fold change vs veh, TAOK1 / RFU, ACBD3 / Fold change vs veh, ACBD3 / RFU, TMA16 / Fold change vs veh, TMA16 / RFU, RWDD3 / Fold change vs veh, RWDD3 / RFU, BCAT1 / Fold change vs veh, BCAT1 / RFU, EDEM3 / Fold change vs veh, EDEM3 / RFU, TMEM33 / Fold change vs veh, TMEM33 / RFU, WDR75 / Fold change vs veh, WDR75 / RFU, AHCTF1 / Fold change vs veh, AHCTF1 / RFU, TFRC / Fold change vs veh, TFRC / RFU, ZDHHC17 / Fold change vs veh, ZDHHC17 / RFU, NOM1 / Fold change vs veh, NOM1 / RFU, ARL8B / Fold change vs veh, ARL8B / RFU, ZBTB11 / Fold change vs veh, ZBTB11 / RFU, TAMM41 / Fold change vs veh, TAMM41 / RFU, KIAA1704 /// LOC100996395 / Fold change vs veh, KIAA1704 /// LOC100996395 / RFU, ING1 / Fold change vs veh, ING1 / RFU, TRMT61B / Fold change vs veh, TRMT61B / RFU, FUBP3 / Fold change vs veh, FUBP3 / RFU, TP53 / Fold change vs veh, TP53 / RFU, TNKS2 / Fold change vs veh, TNKS2 / RFU, ZFP14 / Fold change vs veh, ZFP14 / RFU, ACTR2 / Fold change vs veh, ACTR2 / RFU, PPP3R1 / Fold change vs veh, PPP3R1 / RFU, PIK3R1 / Fold change vs veh, PIK3R1 / RFU, HNRNPA1 / Fold change vs veh, HNRNPA1 / RFU, RNF170 / Fold change vs veh, RNF170 / RFU, ZNF28 / Fold change vs veh, ZNF28 / RFU, RNGTT / Fold change vs veh, RNGTT / RFU, OGT / Fold change vs veh, OGT / RFU, BRD1 / Fold change vs veh, BRD1 / RFU, MARS / Fold change vs veh, MARS / RFU, ZNF655 / Fold change vs veh, ZNF655 / RFU, FAHD1 / Fold change vs veh, FAHD1 / RFU, BDP1 / Fold change vs veh, BDP1 / RFU, LRRCC1 / Fold change vs veh, LRRCC1 / RFU, ARID1A / Fold change vs veh, ARID1A / RFU, ZNF146 / Fold change vs veh, ZNF146 / RFU, ZNF330 / Fold change vs veh, ZNF330 / RFU, GPN3 / Fold change vs veh, GPN3 / RFU, C9orf123 / Fold change vs veh, C9orf123 / RFU, N4BP2L2 / Fold change vs veh, N4BP2L2 / RFU, ARFIP1 / Fold change vs veh, ARFIP1 / RFU, FAM179B / Fold change vs veh, FAM179B / RFU, BCL10 / Fold change vs veh, BCL10 / RFU, UHRF1BP1L / Fold change vs veh, UHRF1BP1L / RFU, BET1 / Fold change vs veh, BET1 / RFU, CNOT2 / Fold change vs veh, CNOT2 / RFU, ZNF268 / Fold change vs veh, ZNF268 / Fold change vs veh, ZNF507 / RFU, DGCR2 / Fold change vs veh, DGCR2 / RFU, WDSUB1 / Fold change vs veh, WDSUB1 / Fold change vs veh, HSP90B1 /// MIR3652 / RFU, ADSS / Fold change vs veh, ADSS / RFU, GK / Fold change vs veh, GK / RFU, ZNF148 / Fold change vs veh, ZNF148 / RFU, TAF9 / Fold change vs veh, TAF9 / RFU, SLC1A5 / Fold change vs veh, SLC1A5 / RFU, SLMO2 / Fold change vs veh, SLMO2 / RFU, ABCC4 / Fold change vs veh, ABCC4 / RFU, LOC101060439 /// RAP1B / Fold change vs veh, LOC101060439 /// RAP1B / RFU, RFX7 / Fold change vs veh, RFX7 / RFU, GTPBP10 / Fold change vs veh, GTPBP10 / RFU, CNEP1R1 / Fold change vs veh, CNEP1R1 / RFU, BIVM-ERCC5 /// ERCC5 / Fold change vs veh, BIVM-ERCC5 /// ERCC5 / RFU, ILF3 / Fold change vs veh, ILF3 / RFU 11762660_at / Fold change /veh 11762660_at / RFU VCAN (11757783_s_at) / Fold change /veh VCAN (11757783_s_at) / RFU DDX43 (11728927_at) / Fold change /veh DDX43 (11728927_at) / RFU KRT8 (11758188_x_at) / Fold change /veh KRT8 (11758188_x_at) / RFU NKD1 (11759106_at) / Fold change /veh NKD1 (11759106_at) / RFU SRD5A1 (11742802_a_at) / Fold change /veh SRD5A1 (11742802_a_at) / RFU TPSAB1 /// TPSB2 (11721975_s_at) / Fold change /veh TPSAB1 /// TPSB2 (11721975_s_at) / RFU GSTM3 (11746129_a_at) / Fold change /veh GSTM3 (11746129_a_at) / RFU IL23R (11737362_x_at) / Fold change /veh IL23R (11737362_x_at) / RFU TMEM51 (11727254_a_at) / Fold change /veh TMEM51 (11727254_a_at) / RFU PIWIL2 (11732686_x_at) / Fold change /veh PIWIL2 (11732686_x_at) / RFU ORM1 (11744905_x_at) / Fold change /veh ORM1 (11744905_x_at) / RFU CCDC152 (11743942_at) / Fold change /veh CCDC152 (11743942_at) / RFU ECM1 (11717891_a_at) / Fold change /veh ECM1 (11717891_a_at) / RFU IL23R (11748794_a_at) / Fold change /veh IL23R (11748794_a_at) / RFU TNFAIP8L3 (11732012_x_at) / Fold change /veh TNFAIP8L3 (11732012_x_at) / RFU MBOAT4 (11741988_at) / Fold change /veh MBOAT4 (11741988_at) / RFU 11764193_at / Fold change /veh 11764193_at / RFU TMEM53 (11763286_at) / Fold change /veh TMEM53 (11763286_at) / RFU MAGEB2 (11727129_at) / Fold change /veh MAGEB2 (11727129_at) / RFU TMEM200A (11744735_a_at) / Fold change /veh TMEM200A (11744735_a_at) / RFU CCDC152 (11751479_a_at) / Fold change /veh CCDC152 (11751479_a_at) / RFU FAM211A (11726209_a_at) / Fold change /veh FAM211A (11726209_a_at) / RFU RGS16 (11746705_a_at) / Fold change /veh RGS16 (11746705_a_at) / RFU VCAN (11755009_s_at) / Fold change /veh VCAN (11755009_s_at) / RFU RHOB (11743442_s_at) / Fold change /veh RHOB (11743442_s_at) / RFU RGS16 (11720943_a_at) / Fold change /veh RGS16 (11720943_a_at) / RFU RGS16 (11720944_at) / Fold change /veh RGS16 (11720944_at) / RFU, VPS4B / Fold change vs veh, VPS4B / RFU, CREB1 / Fold change vs veh, CREB1 / RFU, DNAJC13 / Fold change vs veh, DNAJC13 / RFU, GNAQ / Fold change vs veh, GNAQ / RFU, CDK5R1 / Fold change vs veh, CDK5R1 / RFU, ZRANB3 / Fold change vs veh, ZRANB3 / RFU, CUL4A / Fold change vs veh, CUL4A / RFU, CCNY / Fold change vs veh, CCNY / RFU, UFL1 / Fold change vs veh, UFL1 / RFU, COG3 / Fold change vs veh, COG3 / RFU, DIAPH2 / Fold change vs veh, DIAPH2 / RFU, SKA2 / Fold change vs veh, SKA2 / RFU, AFF3 / Fold change vs veh, AFF3 / RFU, LMF1 / Fold change vs veh, LMF1 / RFU, IPO11 / Fold change vs veh, IPO11 / RFU, DFFB / Fold change vs veh, DFFB / RFU, FOXP1 / Fold change vs veh, FOXP1 / RFU, CARD8 / Fold change vs veh, CARD8 / RFU, STRN3 / Fold change vs veh, STRN3 / RFU, ADK / Fold change vs veh, ADK / RFU, RASSF2 / Fold change vs veh, RASSF2 / RFU, WIPF1 / Fold change vs veh, WIPF1 / RFU, LARP1B / Fold change vs veh, LARP1B / RFU, RASA1 / Fold change vs veh, RASA1 / RFU, RB1 / Fold change vs veh, RB1 / RFU, PPFIA1 / Fold change vs veh, PPFIA1 / RFU, MAT2A / Fold change vs veh, MAT2A / RFU, CCT5 / Fold change vs veh, CCT5 / RFU, WDR92 / Fold change vs veh, WDR92 / RFU, CUX1 / Fold change vs veh, CUX1 / RFU, TTC7A / Fold change vs veh, TTC7A / RFU, TMEM135 / Fold change vs veh, TMEM135 / RFU, DEPTOR / Fold change vs veh, DEPTOR / RFU, CPM / Fold change vs veh, CPM / RFU, DNAJB6 / Fold change vs veh, DNAJB6 / RFU, CACNA2D3 / Fold change vs veh, CACNA2D3 / RFU, DTX4 / Fold change vs veh, DTX4 / RFU, TFCP2 / Fold change vs veh, TFCP2 / RFU, GMCL1 /// GMCL1P1 / Fold change vs veh, GMCL1 /// GMCL1P1 / RFU, AEBP2 / Fold change vs veh, AEBP2 / RFU, SNHG1 /// SNORD22 /// SNORD25 /// SNORD26 /// SNORD27 /// SNORD28 /// SNORD29 /// SNORD31 / Fold change vs veh, SNHG1 /// SNORD22 /// SNORD25 /// SNORD26 /// SNORD27 /// SNORD28 /// SNORD29 /// SNORD31 / Fold change (Aza/veh), C12orf56 (ProbeSet 11735607_a_at) / Fold change (ACY-1035/veh), C12orf56 (ProbeSet 11735607_a_at) / Fold change (Aza/veh), FGFR1OP (ProbeSet 11751329_s_at) / Fold change (ACY-1035/veh), FGFR1OP (ProbeSet 11751329_s_at) / Fold change (Aza/veh), VPS36 (ProbeSet 11739960_a_at) / Fold change (ACY-1035/veh), VPS36 (ProbeSet 11739960_a_at) / RFU SYPL1 (11715823_x_at) / Fold change /veh SYPL1 (11715823_x_at) / RFU IGFBP7 (11715501_s_at) / Fold change /veh IGFBP7 (11715501_s_at) / RFU REEP3 (11722064_at) / Fold change /veh REEP3 (11722064_at) / RFU IGLL1 (11728026_x_at) / Fold change /veh IGLL1 (11728026_x_at): dose or concentration left out as unconfirmed. The class given is cell-based, human.

On to `Nc1ccc(-c2cccs2)cc1NC(=O)c1ccc2c(c1)cc(C1CC1)n2CCN1CCOCC1` [ACY-1035], for which the “Fold change /veh CDKN2B (11736163_a_at)” value is given as 1.20.

The record behind these values is paper PMC5218480 (PLoS ONE, 2017).
